Results: patent US12391737B2, “Soluble NPY2 receptor agonists” (Boehringer Ingelheim International GmbH, priority 2020, dated 2025)
pKi: −log10 of the molar value. *1 amine or outer side, *2 acyl side, *3 side chain or, on linkers, in order; H or OH if unused. Where a SMILES comes first, the peptide text is derived from it. Side-chain parts run from the residue outwards. The star is where a group is joined. C18 diacid = O=C(O)CCCCCCCCCCCCCCCCC(=O)*; γGlu = O=C(O)[C@H](CCC(=O)[*:2])N[*:1]; Isovaleryl = CC(C)CC(=O)*; Ahx = NCCCCCC(=O)O

Experiments:
[1] = biological target: T1, Human Neuropeptide Y2 Receptor (Homo sapiens, UniProt P49146); test: Radioligand binding competition assay (RLB); conditions: Table 3, 125I-PYY(1-36) competition; read-out: Ki
T1 construct: purchased CHEMICON HTS066M
T1 sequence (P49146 1-381): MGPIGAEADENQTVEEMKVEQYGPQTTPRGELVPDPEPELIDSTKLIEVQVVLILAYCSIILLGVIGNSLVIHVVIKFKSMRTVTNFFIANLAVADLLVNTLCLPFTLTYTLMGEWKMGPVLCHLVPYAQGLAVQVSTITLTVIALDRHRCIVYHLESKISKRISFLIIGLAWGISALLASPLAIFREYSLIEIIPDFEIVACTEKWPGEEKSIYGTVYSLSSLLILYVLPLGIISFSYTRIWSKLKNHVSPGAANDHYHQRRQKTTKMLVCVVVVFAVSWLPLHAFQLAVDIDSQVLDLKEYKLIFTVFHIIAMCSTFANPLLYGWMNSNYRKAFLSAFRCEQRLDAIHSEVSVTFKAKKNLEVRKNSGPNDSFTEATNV
In short: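 Displacement of radioligand is measured after 2 h at room temperature with receptor membranes in Mg2+/Ca2+ HEPES buffer, pH 7.4. Filter-bound radioactivity is counted and IC50 obtained from curve fitting.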

Solubility determination = test: Solubility determination
In short: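 First, TFA-salt peptide was added to 0.1 M sodium diphosphate (pH 6.4 or 7.0) to 10 mg/ml and shaken 2 h at room temperature. Next, insoluble material was filtered off. Finally, filtrate and control, each 1 mg/ml in 50% acetonitrile, were compared by reversed-phase chromatography.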

Compound | pKi [1] | Sol6 (Solubility determination; pH 6) [mg/mL] | Sol7 (Solubility determination; pH 7) [mg/mL] | Sol6 (Solubility determination; solubility in the pH 6 condition, measured pH printed in the next column (6.0-6.3)) [mg/mL] | Sol7 (Solubility determination; solubility in the pH 7 condition, measured pH printed in the next column (6.6-6.9)) [mg/mL]
CC(C)CC(=O)N[C@@H](C)C(=O)N1CCC[C@H]1C(=O)N[C@@H](C)C(=O)N[C@@H](CCCCNC(=O)CCCCCNC(=O)CC[C@H](NC(=O)CCCCCCCCCCCCCCCCC(=O)O)C(=O)O)C(=O)N1CCC[C@H]1C(=O)N[C@@H](CCC(=O)O)C(=O)N[C@@H](CCC(=O)O)C(=O)N[C@@H](CC(=O)O)C(=O)N[C@@H](C)C(=O)N[C@@H](CO)C(=O)N1CCC[C@H]1C(=O)N[C@@H](CCC(=O)O)C(=O)N[C@@H](CCC(=O)O)C(=O)N[C@@H](CC(C)C)C(=O)N[C@@H](CCC(N)=O)C(=O)N[C@@H](CCCNC(=N)N)C(=O)N[C@@H](Cc1ccc(O)cc1)C(=O)N[C@@H](Cc1ccc(O)cc1)C(=O)N[C@H](C(=O)N[C@@H](CO)C(=O)N[C@@H](CC(C)C)C(=O)N[C@@H](CCCNC(=N)N)C(=O)N[C@@H](Cc1c[nH]cn1)C(=O)N[C@@H](Cc1ccc(O)cc1)C(=O)N[C@@H](CCC(N)=O)C(=O)N[C@@H](CC(N)=O)C(=O)N[C@@H](Cc1c[nH]c2ccccc12)C(=O)N[C@@H](CC(C)C)C(=O)N[C@H](C(=O)N[C@@H](CCCNC(=N)N)C(=O)N[C@@H](CCC(N)=O)C(=O)N[C@@H](CCCNC(=N)N)C(=O)N[C@@H](Cc1ccc(O)cc1)C(N)=O)[C@@H](C)O)C(C)C [Compound 77, N{alpha-4}-(3-methylbutanoyl)-N{epsilon-7}-(6-[(4S)-4-carboxy-4-(17-carboxyheptadecanamido)butanamido]hexanoyl)-[4A,6A,7K,9E,18Q,22V,28Q,30W,31L]-hPYY(4-36)] | 8.01 | >10.0 | 9.0 |  | 
CC(C)CC(=O)N[C@@H](C)C(=O)N1CCC[C@H]1C(=O)N[C@@H](CCC(=O)O)C(=O)N[C@@H](CCCCNC(=O)CCCCCNC(=O)CC[C@H](NC(=O)CCCCCCCCCCCCCCCCC(=O)O)C(=O)O)C(=O)N1CCC[C@H]1C(=O)N[C@@H](CCC(=O)O)C(=O)N[C@@H](CCC(=O)O)C(=O)N[C@@H](CC(=O)O)C(=O)N[C@@H](C)C(=O)N[C@H](C(=O)N1CCC[C@H]1C(=O)N[C@@H](CCC(=O)O)C(=O)N[C@@H](CCC(=O)O)C(=O)N[C@@H](CC(C)C)C(=O)N[C@@H](CCC(N)=O)C(=O)N[C@@H](CCCNC(=N)N)C(=O)N[C@@H](Cc1ccc(O)cc1)C(=O)N[C@@H](Cc1ccc(O)cc1)C(=O)N[C@H](C(=O)N[C@@H](CO)C(=O)N[C@@H](CC(C)C)C(=O)N[C@@H](CCCNC(=N)N)C(=O)N[C@@H](Cc1c[nH]cn1)C(=O)N[C@@H](Cc1ccc(O)cc1)C(=O)N[C@@H](Cc1ccc(O)cc1)C(=O)N[C@@H](CC(N)=O)C(=O)N[C@@H](Cc1c[nH]c2ccccc12)C(=O)N[C@@H](CC(C)C)C(=O)N[C@H](C(=O)N[C@@H](CCCCN)C(=O)N[C@@H](CCC(N)=O)C(=O)N[C@@H](CCCNC(=N)N)C(=O)N[C@@H](Cc1ccc(O)cc1)C(N)=O)[C@@H](C)O)C(C)C)[C@@H](C)O [Compound 180, N{alpha-4}-(3-methylbutanoyl)-N{epsilon-7}-(6-[(4S)-4-carboxy-4-(17-carboxyheptadecanamido)butanamido]hexanoyl)-[4A,7K,9E,13T,18Q,22V,28Y,30W,31L,33K]-hPYY(4-36)] | 7.82 |  |  | 9.9 | 10.0

The next compounds have a higher pKi [1] than those just listed; values first:

pKi [1] | Sol6 (Solubility determination; pH 6) [mg/mL] | Sol7 (Solubility determination; pH 7) [mg/mL] | Compound | Sol6 (Solubility determination; solubility in the pH 6 condition, measured pH printed in the next column (6.0-6.3)) [mg/mL] | Sol7 (Solubility determination; solubility in the pH 7 condition, measured pH printed in the next column (6.6-6.9)) [mg/mL]
8.53 | 8.9 | 7.9 | CC(C)CC(=O)N[C@@H](C)C(=O)N1CCC[C@H]1C(=O)N[C@@H](CCC(=O)O)C(=O)N[C@@H](CCCCNC(=O)CCCCCNC(=O)CC[C@H](NC(=O)CCCCCCCCCCCCCCCCC(=O)O)C(=O)O)C(=O)N1CCC[C@H]1C(=O)N[C@@H](CCC(=O)O)C(=O)N[C@@H](CCC(=O)O)C(=O)N[C@@H](CC(=O)O)C(=O)N[C@@H](C)C(=O)N[C@H](C(=O)N1CCC[C@H]1C(=O)N[C@@H](CCC(=O)O)C(=O)N[C@@H](CCC(=O)O)C(=O)N[C@@H](CC(C)C)C(=O)N[C@@H](CCC(N)=O)C(=O)N[C@@H](C)C(=O)N[C@@H](Cc1ccc(O)cc1)C(=O)N[C@@H](Cc1ccc(O)cc1)C(=O)N[C@H](C(=O)N[C@@H](CO)C(=O)N[C@@H](CC(C)C)C(=O)N[C@@H](CCCNC(=N)N)C(=O)N[C@@H](Cc1c[nH]cn1)C(=O)N[C@@H](Cc1ccc(O)cc1)C(=O)N[C@@H](Cc1ccc(O)cc1)C(=O)N[C@@H](CC(N)=O)C(=O)N[C@@H](Cc1c[nH]c2ccccc12)C(=O)N[C@@H](CC(C)C)C(=O)N[C@H](C(=O)N[C@@H](CCCNC(=N)N)C(=O)N[C@@H](CCC(N)=O)C(=O)N[C@@H](CCCNC(=N)N)C(=O)N[C@@H](Cc1ccc(O)cc1)C(N)=O)[C@@H](C)O)C(C)C)[C@@H](C)O [Compound 95, N{alpha-4}-(3-methylbutanoyl)-N{epsilon-7}-(6-[(4S)-4-carboxy-4-(17-carboxyheptadecanamido)butanamido]hexanoyl)-[4A,7K,9E,13T,18Q,19A,22V,28Y,30W,31L]-hPYY(4-36)] |  | 
8.56 | 8.7 | 9.3 | CC(C)CC(=O)N[C@@H](C)C(=O)N1CCC[C@H]1C(=O)N[C@@H](CCC(=O)O)C(=O)N[C@@H](CCCCNC(=O)CCCCCNC(=O)CC[C@H](NC(=O)CCCCCCCCCCCCCCCCC(=O)O)C(=O)O)C(=O)N1CCC[C@H]1C(=O)N[C@@H](CCC(=O)O)C(=O)N[C@@H](C)C(=O)N[C@@H](CC(=O)O)C(=O)N[C@@H](C)C(=O)N[C@H](C(=O)N1CCC[C@H]1C(=O)N[C@@H](CCC(=O)O)C(=O)N[C@@H](CCC(=O)O)C(=O)N[C@@H](CC(C)C)C(=O)N[C@@H](CCC(N)=O)C(=O)N[C@@H](CCCNC(=N)N)C(=O)N[C@@H](Cc1ccc(O)cc1)C(=O)N[C@@H](Cc1ccc(O)cc1)C(=O)N[C@H](C(=O)N[C@@H](CO)C(=O)N[C@@H](CC(C)C)C(=O)N[C@@H](CCCNC(=N)N)C(=O)N[C@@H](Cc1c[nH]cn1)C(=O)N[C@@H](Cc1ccc(O)cc1)C(=O)N[C@@H](Cc1ccc(O)cc1)C(=O)N[C@@H](CC(N)=O)C(=O)N[C@@H](Cc1c[nH]c2ccccc12)C(=O)N[C@@H](CC(C)C)C(=O)N[C@H](C(=O)N[C@@H](CCCNC(=N)N)C(=O)N[C@@H](CCC(N)=O)C(=O)N[C@@H](CCCNC(=N)N)C(=O)N[C@@H](Cc1ccc(O)cc1)C(N)=O)[C@@H](C)O)C(C)C)[C@@H](C)O [Compound 132, N{alpha-4}-(3-methylbutanoyl)-N{epsilon-7}-(6-[(4S)-4-carboxy-4-(17-carboxyheptadecanamido)butanamido]hexanoyl)-[4A,7K,9E,10A,13T,18Q,22V,28Y,30W,31L]-hPYY(4-36)] |  | 
9.27 | 0.1 | 9.5 | CC(C)CC(=O)N[C@@H](C)C(=O)N1CCC[C@H]1C(=O)N[C@@H](CCC(=O)O)C(=O)N[C@@H](CCCCNC(=O)CCCCCNC(=O)CC[C@H](NC(=O)CCCCCCCCCCCCCCCCC(=O)O)C(=O)O)C(=O)N1CCC[C@H]1C(=O)N1CCC[C@H]1C(=O)N[C@@H](C)C(=O)N[C@@H](CC(=O)O)C(=O)N[C@@H](C)C(=O)N[C@@H](CO)C(=O)N1CCC[C@H]1C(=O)N[C@@H](CCC(=O)O)C(=O)N[C@@H](CCC(=O)O)C(=O)N[C@H](C(=O)N[C@@H](CCC(N)=O)C(=O)N[C@@H](CCCNC(=N)N)C(=O)N[C@@H](Cc1ccc(O)cc1)C(=O)N[C@@H](Cc1ccc(O)cc1)C(=O)N[C@H](C(=O)N[C@@H](CO)C(=O)N[C@@H](CC(C)C)C(=O)N[C@@H](CCCNC(=N)N)C(=O)N[C@@H](Cc1c[nH]cn1)C(=O)N[C@@H](Cc1ccc(O)cc1)C(=O)N[C@@H](Cc1ccc(O)cc1)C(=O)N[C@@H](CC(N)=O)C(=O)N[C@@H](Cc1c[nH]c2ccccc12)C(=O)N[C@@H](CC(C)C)C(=O)N[C@H](C(=O)N[C@@H](CCCNC(=N)N)C(=O)N[C@@H](CCC(N)=O)C(=O)N[C@@H](CCCNC(=N)N)C(=O)N[C@@H](Cc1ccc(O)cc1)C(N)=O)[C@@H](C)O)C(C)C)[C@@H](C)O [Compound 69, N{alpha-4}-(3-methylbutanoyl)-N{epsilon-7}-(6-[(4S)-4-carboxy-4-(17-carboxyheptadecanamido)butanamido]hexanoyl)-[4A,7K,9P,10A,17T,18Q,22V,28Y,30W,31L]-hPYY(4-36)] (Isovaleryl-APEK([Ahx-γGlu-C18 diacid])PPADASPEETQRYYVSLRHYYNWLTRQRY-NH2) |  | 
